ChEMBL document CHEMBL1201862, “PubChem BioAssay data set” (2004)
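A five-concentration, 48-hour dose response in 96-well plates underlies each endpoint, interpolated linearly between surrounding concentrations. Here, GI50 denotes the concentration required for 50% inhibition of growth.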 Calls of active or inactive are those of the source. Rule as the data show it: active = GI50 up to about 1.1 µM and inactive = higher.

Experiments:
Assay in all cases: inhibition of tumour cell growth, NCI panel, 48 h
A498 = tested on: A498
CAKI-1 = tested on: CAKI-1
COLO 205 = tested on: COLO 205
HCC 2998 = tested on: HCC 2998
HCT-116 = tested on: HCT-116
HCT-15 = tested on: HCT-15
K562 = tested on: K562
MDA-MB-231 = tested on: MDA-MB-231
MDA-MB-435 = tested on: MDA-MB-435
MOLT-4 = tested on: MOLT-4
NCI-H460 = tested on: NCI-H460
NCI-H522 = tested on: NCI-H522
OVCAR-3 = tested on: OVCAR-3
OVCAR-4 = tested on: OVCAR-4
SF-295 = tested on: SF-295
SF-539 = tested on: SF-539
SK-MEL-28 = tested on: SK-MEL-28
SK-OV-3 = tested on: SK-OV-3
SW-620 = tested on: SW-620
UACC-257 = tested on: UACC-257

SMILES	GI50 (A498)	GI50 (CAKI-1)	GI50 (COLO 205)	GI50 (HCC 2998)	GI50 (HCT-116)	GI50 (HCT-15) [µM]	GI50 (K562)	GI50 (MDA-MB-231)	GI50 (MDA-MB-435)	GI50 (MOLT-4)	GI50 (NCI-H460)	GI50 (NCI-H522)	GI50 (OVCAR-3)	GI50 (OVCAR-4)	GI50 (SF-295)	GI50 (SF-539)	GI50 (SK-MEL-28)	GI50 (SK-OV-3)	GI50 (SW-620)	GI50 (UACC-257)
NCCNCC1CCNCC1	> 100 µM (inactive)	> 100 µM (inactive)	> 100 µM (inactive)	> 100 µM (inactive)	> 100 µM (inactive)	> 100	> 100 µM (inactive)	> 100 µM (inactive)	> 100 µM (inactive)	> 100 µM (inactive)	> 100 µM (inactive)	> 100 µM (inactive)	> 100 µM (inactive)	> 100 µM (inactive)	> 100 µM (inactive)	> 100 µM (inactive)	> 100 µM (inactive)	> 100 µM (inactive)	> 100 µM (inactive)	> 100 µM (inactive)
COc1ccc(C2C(C)C(=O)C(C)C(c3ccc(OC)cc3)N2N=O)cc1 (stereo not given)	203 µM (inactive)	246 µM (inactive)	> 550 µM (inactive)	> 750 µM (inactive)	127 µM (inactive)	> 1000	> 1000 µM (inactive)	27.2 µM (inactive)	166 µM (inactive)	> 789 µM (inactive)	> 659 µM (inactive)	> 427 µM (inactive)	454 µM (inactive)	> 479 µM (inactive)	126 µM (inactive)	> 75.5 µM (inactive)	> 640 µM (inactive)	257 µM (inactive)	> 1000 µM (inactive)	> 703 µM (inactive)
C=C(C)C12CC3CC/C(=N/O)C(C1)C3(N1CCOCC1)C/C2=N/O (stereo not given)	> 100 µM (inactive)	> 100 µM (inactive)	> 100 µM (inactive)	> 100 µM (inactive)	> 100 µM (inactive)	> 100	> 100 µM (inactive)	> 100 µM (inactive)	> 100 µM (inactive)	> 100 µM (inactive)	> 100 µM (inactive)	> 100 µM (inactive)	> 100 µM (inactive)	> 100 µM (inactive)	> 100 µM (inactive)	> 100 µM (inactive)	> 100 µM (inactive)	> 100 µM (inactive)	> 100 µM (inactive)	> 100 µM (inactive)
O=C1C=C(NCCc2ccccc2)c2ccccc2C1=O	3.71 µM (inactive)	9.48 µM (inactive)	1.83 µM (inactive)	1.79 µM (inactive)	4.95 µM (inactive)	1.67	4.34 µM (inactive)	5.86 µM (inactive)	0.925 µM (active)	7.33 µM (inactive)	1.57 µM (inactive)	1.71 µM (inactive)	1.44 µM (inactive)	3.93 µM (inactive)	1.98 µM (inactive)	2.19 µM (inactive)	1.87 µM (inactive)	13.9 µM (inactive)	1.85 µM (inactive)	1.53 µM (inactive)
Nc1c(O)c(C(=O)O)cc2ccccc12	> 100 µM (inactive)	22.6 µM (inactive)	26.1 µM (inactive)	94 µM (inactive)	17.5 µM (inactive)	36.6	31.8 µM (inactive)	15.3 µM (inactive)	18.8 µM (inactive)	29.8 µM (inactive)	39.6 µM (inactive)	17.7 µM (inactive)	24.3 µM (inactive)	22.9 µM (inactive)	51.8 µM (inactive)	40.6 µM (inactive)	37.2 µM (inactive)	> 100 µM (inactive)	18.3 µM (inactive)	17.3 µM (inactive)
COc1ccc(C(O)c2ccc3c(c2)OCO3)cc1 (stereo not given)	> 100 µM (inactive)	> 100 µM (inactive)	> 100 µM (inactive)	> 100 µM (inactive)	> 100 µM (inactive)	> 100	> 100 µM (inactive)	> 100 µM (inactive)	> 100 µM (inactive)	> 100 µM (inactive)	> 100 µM (inactive)	> 100 µM (inactive)	> 100 µM (inactive)	67.6 µM (inactive)	> 100 µM (inactive)	> 100 µM (inactive)	> 100 µM (inactive)	> 100 µM (inactive)	> 100 µM (inactive)	> 100 µM (inactive)
COc1c2occc2c(OC)c2c(=O)c(S(=O)(=O)NC(=O)Nc3ccc(Cl)cc3)coc12	> 10 µM (inactive)	> 10 µM (inactive)	> 10 µM (inactive)	> 10 µM (inactive)	> 10 µM (inactive)	> 10	> 10 µM (inactive)	> 10 µM (inactive)	> 10 µM (inactive)	> 10 µM (inactive)	> 10 µM (inactive)	> 10 µM (inactive)	> 10 µM (inactive)	> 10 µM (inactive)	> 10 µM (inactive)	> 10 µM (inactive)	> 10 µM (inactive)	> 10 µM (inactive)	> 10 µM (inactive)	> 10 µM (inactive)
c1sc(NC2=NCCO2)c2c1CCCC2	> 100 µM (inactive)	> 100 µM (inactive)	> 100 µM (inactive)	> 100 µM (inactive)	> 100 µM (inactive)	> 100	> 100 µM (inactive)	> 100 µM (inactive)	> 100 µM (inactive)	85.5 µM (inactive)	> 100 µM (inactive)	> 100 µM (inactive)	> 100 µM (inactive)	> 100 µM (inactive)	> 100 µM (inactive)	> 100 µM (inactive)	> 100 µM (inactive)	> 100 µM (inactive)	> 100 µM (inactive)	> 100 µM (inactive)
Cc1ccc2c(c1)OC1Nc3ccccc3C1=C2O (stereo not given)	15.5 µM (inactive)	23.2 µM (inactive)	14.8 µM (inactive)	14.2 µM (inactive)	24.8 µM (inactive)	25.1	25.9 µM (inactive)	20.6 µM (inactive)	26.2 µM (inactive)	32.1 µM (inactive)	20.2 µM (inactive)	28.7 µM (inactive)	3.86 µM (inactive)	40.4 µM (inactive)	21.6 µM (inactive)	20.1 µM (inactive)	53.7 µM (inactive)	13.9 µM (inactive)	29.2 µM (inactive)	22.2 µM (inactive)
Cc1c2cc[n+](C)c(C)c2cc2c1[nH]c1ccccc12	70.5 µM (inactive)	31.3 µM (inactive)	1.57 µM (inactive)	7.78 µM (inactive)	16.1 µM (inactive)	> 100	4.94 µM (inactive)	2.51 µM (inactive)	16.2 µM (inactive)	4.05 µM (inactive)	3.37 µM (inactive)	2.86 µM (inactive)	5 µM (inactive)	5.43 µM (inactive)	2.27 µM (inactive)	2.96 µM (inactive)	5.41 µM (inactive)	12.7 µM (inactive)	8.09 µM (inactive)	10.8 µM (inactive)
